{"source": "PubChem BioAssay AID1421", "about": "(Emory University Molecular Libraries Screening Center, 2008)", "note": "The source made the active and inactive calls. No rule for the calls is given here."}
{"target": "Prostaglandin E2 receptor EP2 subtype (Homo sapiens) (UniProt P43116)", "sequence (P43116 whole entry, looked up)": "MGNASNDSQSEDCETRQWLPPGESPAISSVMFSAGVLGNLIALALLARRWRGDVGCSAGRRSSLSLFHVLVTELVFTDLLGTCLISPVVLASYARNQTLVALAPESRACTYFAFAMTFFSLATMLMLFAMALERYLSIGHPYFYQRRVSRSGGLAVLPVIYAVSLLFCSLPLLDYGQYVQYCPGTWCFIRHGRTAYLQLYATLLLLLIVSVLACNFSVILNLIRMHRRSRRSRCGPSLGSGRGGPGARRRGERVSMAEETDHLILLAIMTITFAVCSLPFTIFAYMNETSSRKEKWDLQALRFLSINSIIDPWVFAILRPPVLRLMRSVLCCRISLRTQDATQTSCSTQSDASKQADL", "assay": "compounds shifting PGE2 potency at EP2 – cell-based, human EP2, PGE2 EC50 shift, dose response (AID 1421)", "conditions": "EP2-expressing cells, PGE2 EC50 shift by compound"}
{"smiles": "O=C(NCc1ccc(F)cc1)c1ccccc1OCc1ccccc1", "outcome": "active"}
{"target": "Prostaglandin E2 receptor EP2 subtype (Homo sapiens) (UniProt P43116)", "assay": "compounds shifting PGE2 potency at EP2 – cell-based, human EP2, PGE2 EC50 shift, dose response (AID 1421)", "conditions": "EP2-expressing cells, PGE2 EC50 shift by compound; measured here: PGE2 EC50 at 6.7 uM compound", "units": {"PGE2 EC50 with compound": "nM"}}
{"smiles": "CCCn1c(Nc2nc3ccccc3n2C)nc2ccccc21", "PGE2 EC50 with compound": 1.02}
{"smiles": "CCCCN1C(=O)/C(=C2\\SC(N3CCCCC3)=NC2=O)c2ccccc21", "PGE2 EC50 with compound": 1.26}
{"smiles": "CCn1c(=S)[nH]c2c(c1=O)C(C)(C)Cc1ccccc1-2", "PGE2 EC50 with compound": 0.76}
{"smiles": "CC1CC(C)CN(CC(=O)NC(c2ccccc2)c2ccccc2)C1", "note": "(configuration not stated)", "PGE2 EC50 with compound": 2.64}
{"smiles": "COC(=O)NC1(C(F)(F)F)C(=O)NC(C)=C1C(=O)OC", "note": "(configuration not stated)", "PGE2 EC50 with compound": 1.02}
{"smiles": "O=C(NCc1ccc(F)cc1)c1ccccc1OCc1ccccc1", "PGE2 EC50 with compound": 1.03}
{"smiles": "CCOc1ccc(-c2nn3c(-c4ccccc4)nnc3s2)cc1", "PGE2 EC50 with compound": 1.04}
{"smiles": "CCOC(=O)C1=NN(c2ccc(C)cc2)C2(S1)SC(C(C)=O)=C(C)N2c1ccccc1", "note": "(configuration not stated)", "PGE2 EC50 with compound": 0.31}
{"smiles": "CCn1ncc(Cl)c1C(=O)Nc1cc(Cl)ccc1Cl", "PGE2 EC50 with compound": 0.7}
{"smiles": "O=C(CNCC1CCCCC1)Nc1ccccc1N1CCCCC1", "PGE2 EC50 with compound": 0.81}
{"smiles": "C#CCSc1nc(Cc2ccc(Cl)cc2)nc2ccccc12", "PGE2 EC50 with compound": 1.22}
